# Experimental data: PubChem BioAssay AID1332 (Southern Research Institute, 2008)
# Test system: M. tuberculosis H37Rv growth inhibition
# Assay: Mycobacterium tuberculosis H37Rv growth inhibition, confirmatory dose response, cytotoxicity (AID 1332);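 note: bacteria incubated 7 days before adding Alamar blue readout reagent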
row,SMILES,IC90
1,CN(C)c1ccc(O)c2c1CC1CC3[C@@H](N(C)C)C(=O)C(C(N)=O)=C(O)[C@]3(O)C(=O)C1=C2O (some centres not stated),2.04 µg/mL
2,CN(C(=O)CN(CCO)CC(=O)N(C)C(C)(C)Cc1ccccc1)C(C)(C)Cc1ccccc1,15.6 µg/mL
3,C=C1C(=O)O[C@@H]2[C@H]3O[C@]3(C)CC/C=C(\C)CC[C@@H]12,1.43 µg/mL
4,OC(c1cc(C(F)(F)F)nc2c(C(F)(F)F)cccc12)C1CCCCN1 (configuration not stated),4.16 µg/mL
5,O=C1CN(/N=C/c2ccc([N+](=O)[O-])o2)C(=O)N1,3.92 µg/mL
6,C=C(NC(=O)C(=C)NC(=O)c1csc(C2=N[C@H]3c4csc(n4)[C@H]4NC(=O)c5csc(n5)[C@H]([C@@](C)(O)[C@@H](C)O)NC(=O)[C@H]5CSC(=N5)/C(=C\C)NC(=O)[C@H]([C@@H](C)O)NC(=O)c5csc(n5)[C@]3(CC2)NC(=O)[C@H](C)NC(=O)C(=C)NC(=O)[C@H](C)NC(=O)[C@H](C(C)CC)N[C@@H]2C=Cc3c([C@H](C)O)cc(nc3[C@H]2O)C(=O)O[C@@H]4C)n1)C(N)=O (some centres not stated),0.357 µg/mL
7,CN(C)[C@@H]1C(=O)C(C(N)=O)=C(O)[C@@]2(O)C(=O)C3=C(O)c4c(O)cccc4[C@@](C)(O)[C@H]3C[C@@H]12,6.54 µg/mL
8,CCC(C)[C@H]1O[C@]2(C=C[C@@H]1C)C[C@@H]1C[C@@H](C/C=C(\C)C(O[C@H]3C[C@H](OC)C(O[C@H]4C[C@H](OC)[C@@H](O)[C@H](C)O4)[C@H](C)O3)[C@@H](C)/C=C/C=C3\CO[C@@H]4[C@H](O)C(C)=C[C@@H](C(=O)O1)[C@]34O)O2 (some centres not stated),2.72 µg/mL
9,CC[C@@]1([C@@H]2O[C@@H]([C@H]3O[C@@](O)(CO)[C@H](C)C[C@@H]3C)C[C@@H]2C)CC[C@H]([C@]2(C)CC[C@]3(C[C@H](O)[C@@H](C)[C@@H]([C@@H](C)[C@@H](OC)[C@H](C)C(=O)O)O3)O2)O1,4.12 µg/mL
10,CCn1cc(C(=O)O)c(=O)c2cc(F)c(N3CCNCC3)cc21,0.81 µg/mL
11,Clc1ccc(C(Cn2ccnc2)OCc2csc3c(Cl)cccc23)c(Cl)c1 (configuration not stated),3.41 µg/mL
12,CN(C)[C@@H]1C(=O)C(C(N)=O)=C(O)[C@@]2(O)C(=O)C3=C(O)c4c(O)ccc(Cl)c4[C@@H](O)[C@H]3C[C@@H]12,12.6 µg/mL
13,CCCCC(CC)CN1CN(CC(CC)CCCC)CC(C)(N)C1 (configuration not stated),6.85 µg/mL
14,CN(C)/N=N/c1nc[nH]c1C(N)=O,0.639 µg/mL
15,CSc1ccc2c(c1)C(N1CCN(C)CC1)Cc1ccccc1S2 (configuration not stated),4.56 µg/mL
16,CN1CCN(CCCN2c3ccccc3Sc3ccc(Cl)cc32)CC1,8.01 µg/mL
17,CN(C)CCCN1c2ccccc2CCc2ccc(Cl)cc21,9.56 µg/mL
18,CCCCCCCCCCCCCCCC[N+](C)(C)CCN(Cc1ccc(OC)cc1)c1ncccn1,1.1 µg/mL
19,C[n+]1cc2c3c(ccc2c2ccc4cc5c(cc4c21)OCO5)OCO3,7.62 µg/mL
20,O=C1NCN(c2ccccc2)C12CCN(CCCC(c1ccc(F)cc1)c1ccc(F)cc1)CC2,2.64 µg/mL
21,CC1=CC(=O)c2ccccc2C1=O,5.38 µg/mL
22,NNC(=O)c1ccncc1,10.4 µg/mL
23,CC1COc2c(N3CCN(C)CC3)c(F)cc3c(=O)c(C(=O)O)cn1c23 (configuration not stated),0.067 µg/mL
24,Clc1ccc(COC(Cn2ccnc2)c2ccc(Cl)cc2Cl)c(Cl)c1 (configuration not stated),1.82 µg/mL

row,SMILES,IC90
1,Cc1cc(N)c2ccccc2[n+]1CCCCCCCCCC[n+]1c(C)cc(N)c2ccccc21,1.78 µg/mL
2,CC(C)N=c1cc2n(-c3ccc(Cl)cc3)c3ccccc3nc-2cc1Nc1ccc(Cl)cc1,0.04 µg/mL
3,Clc1ccccc1C(c1ccccc1)(c1ccccc1)n1ccnc1,5.36 µg/mL
4,CCCCCCCCNC(C)C(O)c1ccc(SC(C)C)cc1 (configuration not stated),2.25 µg/mL
5,CN1C[C@H](CNC(=O)OCc2ccccc2)C[C@@H]2c3cccc4c3c(cn4C)C[C@H]21,5.85 µg/mL
6,CNCCC=C1c2ccccc2C=Cc2ccccc21,17.1 µg/mL
7,Clc1ccc(CCC(Cn2ccnc2)Sc2c(Cl)cccc2Cl)cc1 (configuration not stated),1.61 µg/mL
8,Cc1nnc(NS(=O)(=O)c2ccc(N)cc2)s1,2.6 µg/mL
9,COc1cccc2c1C(=O)c1c(O)c3c(c(O)c1C2=O)C[C@@](O)(C(=O)CO)C[C@@H]3O[C@H]1C[C@H](N)[C@H](O)[C@H](C)O1,2.6 µg/mL
10,O=C1C=CC(=O)c2c1ccc1c2ccc2ccccc21,2.17 µg/mL
11,CCCCc1oc2ccccc2c1C(=O)c1cc(I)c(OCCN(CC)CC)c(I)c1,6.3 µg/mL
12,CN[C@@H]1C(O[C@H]2O[C@H](CO)[C@@H](N)[C@H](O)[C@H]2O)O[C@H]2C[C@@H](N)[C@@H](O[C@H]3[C@H](O)[C@@H](O)[C@H](N)C[C@@H]3N)OC2[C@@H]1O (some centres not stated),3.57 µg/mL
13,C(=C\c1ccccc1)/CN1CCN(C(c2ccccc2)c2ccccc2)CC1,7.6 µg/mL
14,COc1cc(NC(C)CCCN)c2ncccc2c1 (configuration not stated),14.5 µg/mL
15,COc1cc2cc3c4cc(OC)c(OC)cc4cc[n+]3c(C)c2cc1OC,2.13 µg/mL
16,Clc1ccc(COC(Cn2ccnc2)c2ccc(Cl)cc2Cl)cc1 (configuration not stated),1.98 µg/mL
17,C=CCOC(Cn1ccnc1)c1ccc(Cl)cc1Cl (configuration not stated),2 µg/mL
18,CC(Cc1ccccc1)NCCC(c1ccccc1)c1ccccc1 (configuration not stated),4.55 µg/mL
19,Cc1cc(NS(=O)(=O)c2ccc(N)cc2)no1,4.34 µg/mL
20,CN(C)CCCN1c2ccccc2Sc2ccc(Cl)cc21,7.45 µg/mL
21,O=C1OCCN1/N=C/c1ccc([N+](=O)[O-])o1,5.4 µg/mL
22,CCn1cc(C(=O)O)c(=O)c2cc(F)c(N3CCNC(C)C3)c(F)c21 (configuration not stated),0.258 µg/mL
23,CCN(CC)CCOc1ccc(/C(=C(/Cl)c2ccccc2)c2ccccc2)cc1,6.13 µg/mL
